Values of other authors in US10568327B1, “Method of controlling phytopathogenic diseases on turfgrass” (Syngenta Crop Protection LLC, priority 2012, dated 2020).
Where two headings read alike, the source gives them in different places.

Test system: creeping bentgrass greens

Structure (SMILES): CSC(=O)c1cccc2nnsc12 [acibenzolar-S-methyl, S-methyl benzo[1,2,3]thiadiazole-7-carbothioate]
- Turf quality (6.1 grams/1,000 square meters, with reduced chlorothalonil rates, creeping bentgrass greens, Fry et al. 2006): below standard
- Turf quality (with chlorothalonil at lower than recommended rate, creeping bentgrass putting greens, Zhang et al. 2005): unacceptable
